# Reference: patent publication US6605630B1, “Antibiotic oxazolidinone derivatives” (Syngenta Limited, priority 1997, dated 2003)
# Columns and labels:
# Bacillus subtilis = test system: Bacillus subtilis
# Description: (§1) The activity is described in terms of the minimum inhibitory concentration (MIC) determined by the agar-dilution technique with an inoculum size of 10^4 CFU/spot.
# [1] = test system: Staphylococcus aureus Oxford
# Procedure: as §1
# (§2) Staphylococci were tested on agar, using an inoculum of 10^4 CFU/spot and an incubation temperature of 37° C. for 24 hours-standard test conditions for the expression of methicillin resistance.
# [2] = test system: Staphylococcus aureus Novb. Res.
# Procedure: as §1, §2
# [3] = test system: Coagulase Negative Staphylococci MS
# Procedure: as §1, §2
# [4] = test system: Staphylococcus aureus MRQR
# Procedure: as §1, §2
# [5] = test system: Coagulase Negative Staphylococci MR
# Procedure: as §1, §2
# Enterococcus faecalis = settings: agar with 5% defibrinated horse blood, 10^4 CFU/spot, 37° C., 5% carbon dioxide, 48 hours
# Procedure: as §1
# (§3) Streptococci and enterococci were tested on agar supplemented with 5% defibrinated horse blood, an inoculum of 10^4 CFU/spot and an incubation temperature of 37° C. in an atmosphere of 5% carbon dioxide for 48 hours-blood is required for the growth of some of the test organisms.
# [6] = test system: Streptococcus pyogenes C203; settings: agar with 5% defibrinated horse blood, 10^4 CFU/spot, 37° C., 5% carbon dioxide, 48 hours
# Procedure: as §1, §3
substance,measurement,setting,value
"N-((5S)-3-(4-((7aS)[3H,5H]-3-oxo-1,7a-Dihydropyrrolol[1,2c]oxazol-6-yl)phenyl)-2-oxooxazolidin-5-ylmethyl)acetamide [Example 44]",MIC,Bacillus subtilis,0.50 µg/mL
same,MIC,[1],0.25 µg/mL
same,MIC,[2],0.50 µg/mL
same,MIC,[3],0.13 µg/mL
same,MIC,[4],2.00 µg/mL
same,MIC,[5],0.50 µg/mL
same,MIC,Enterococcus faecalis,0.50 µg/mL
same,MIC,[6],0.13 µg/mL
